Reference: paper PMC8607422, “Development of a novel TLR8 agonist for cancer immunotherapy” (Molecular Biomedicine, 2020)

Tests used:
[1] = in vivo; design: species or system Sprague Dawley rats; details: Sprague Dawley, rat
Method: To determine the in vivo pharmacokinetic profiles, the compounds were formulated with 11% captisol and then administered iv, ip, sc and po into Sprague Dawley rats or iv and sc into mice or cynomolgus monkeys, respectively. Blood samples were collected before dosing and 0.083 h, 0.25 h, 0.5 h, 1 h, 2 h, 4 h, 6 h, 8 h, 12 h and 24 h after dosing. Blood samples were collected in tubes containing K2EDTA. Plasma was isolated from the blood samples by centrifugation of the blood samples at 2400 × g for 5 min at 4°C. Plasma samples were measured using LC-MS/MS (Waters ACQUITY UPLC and TQ 6500+) to determine the concentration of compounds. The data was analyzed using WinNonlin 7.0 to calculate the PK parameters such as AUC0-t, AUC0-∞, MRT0-∞, Cmax, Tmax, t1/2 and F.

[2] = target: T1, hTLR4 (Homo sapiens, UniProt O00206+Q9Y6Y9); test: HEK-Blue hTLR4 SEAP reporter agonist assay; assay type: cell-based; details: HEK-Blue hTLR4 cells, highest concentration 50 μM
T1 construct: host or cells: HEK-Blue hTLR4
T1 sequence (O00206 24-839): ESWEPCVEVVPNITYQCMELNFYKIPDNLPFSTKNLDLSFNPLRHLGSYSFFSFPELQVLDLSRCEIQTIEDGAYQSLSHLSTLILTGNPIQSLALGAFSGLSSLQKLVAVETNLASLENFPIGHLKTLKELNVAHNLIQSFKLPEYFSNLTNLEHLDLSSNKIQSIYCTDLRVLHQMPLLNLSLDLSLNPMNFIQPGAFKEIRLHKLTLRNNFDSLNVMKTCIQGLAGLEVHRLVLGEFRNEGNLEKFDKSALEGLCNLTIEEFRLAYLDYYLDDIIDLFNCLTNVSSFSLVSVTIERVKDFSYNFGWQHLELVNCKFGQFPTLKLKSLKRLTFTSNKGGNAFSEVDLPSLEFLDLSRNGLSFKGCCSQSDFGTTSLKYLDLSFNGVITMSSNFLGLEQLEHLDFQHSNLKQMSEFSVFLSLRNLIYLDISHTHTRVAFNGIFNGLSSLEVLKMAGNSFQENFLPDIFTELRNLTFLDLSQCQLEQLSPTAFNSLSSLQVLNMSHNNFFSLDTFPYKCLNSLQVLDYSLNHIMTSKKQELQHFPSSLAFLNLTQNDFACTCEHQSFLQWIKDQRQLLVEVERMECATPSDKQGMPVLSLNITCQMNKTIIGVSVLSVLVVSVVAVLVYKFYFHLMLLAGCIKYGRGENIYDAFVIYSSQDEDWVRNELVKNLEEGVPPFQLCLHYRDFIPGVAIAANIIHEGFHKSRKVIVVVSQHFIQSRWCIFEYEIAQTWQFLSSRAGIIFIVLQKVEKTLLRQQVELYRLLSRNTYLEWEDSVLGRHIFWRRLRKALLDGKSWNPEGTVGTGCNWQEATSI
T1 sequence (Q9Y6Y9 17-160 limits assumed): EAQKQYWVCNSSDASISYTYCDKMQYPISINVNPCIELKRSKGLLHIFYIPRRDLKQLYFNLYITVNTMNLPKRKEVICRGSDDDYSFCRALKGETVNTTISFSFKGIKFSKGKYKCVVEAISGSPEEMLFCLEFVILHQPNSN
Text: HEK-Blue™ hTLR4, 7, 8 and 9 cell lines were purchased from InvivoGen (Hong Kong). The cells express the human TLR gene and NF-κB/AP-1-inducible SEAP (secreted embryonic alkaline phosphatase) reporter gene. SEAP levels produced upon TLR stimulation can be determined by QUANTI-Blue™. In the cell-based assay, the main reagents used were QUANTI-Blue™ (InvivoGen) and ATPlite 1 Step (Perkin Elmer). The main instruments used were the microplate reader SpectraMax 340PC (Molecular Device) and Envision (Perkin Elmer). Motolimod and DN052 were synthesized in house. […] The compounds were in 10 mM stock solution in DMSO and stored at − 20°C. The compounds were serially diluted in the concentration range from 0.5 nM to 15 μM (up to 50 μM in the hTLR4, hTLR7 and hTLR9 assays) and added to 96-well plates. DMSO was used as the negative control. LPS-EK, R848, motolimod and ODN2006 were used as the positive control for TLR4, 7, 8 and 9, respectively. The cells were cultured and treated with the compounds at 37°C, 5%CO2 for 24 h. […] After 1.5 h of incubation, the optical density was measured using the spectrophotometer at 650 nm in the microplate reader of SpectraMax 340PC. The cell viability of each well was determined using ATPlite 1 Step following the manufacturer’s instruction. The luminescence signal in each well of plates was measured in the microplate reader of Envision.

- bioavailability [1]: 57.4%
- Vd ([1]; iv, 2.5 mg/kg): 18.6 L/kg
- clearance ([1]; iv, 2.5 mg/kg): 45.5 mL/min/kg
- AUC(0-inf) ([1]; sc, 10 mg/kg): 2130 ng·h/mL
- AUC(0-t) ([1]; sc, 10 mg/kg): 2130 ng·h/mL
- Cmax ([1]; sc, 10 mg/kg): 720 ng/mL
- Tmax ([1]; sc, 10 mg/kg): 1.17 h
- half-life ([1]; sc, 10 mg/kg): 0.92 h
- EC50 [2]: > 50 µM
Structure (SMILES): CCCN(CCC)C(=O)C1=Cc2ccc(-c3ccc(C(=O)N4CCCC4)cc3)cc2N=C(N)C1 [Motolimod, motolimod]
